Data as given in US11779559B2, “Compositions for treating fungal and bacterial biofilms and methods of using the same” (priority 2017, dated 2023).

Key:
S. aureus [1] = test: Sustained inhibition biofilm assay, bacterial; assay type: cell-based, Staphylococcus aureus; conditions: sustained inhibition assay; S. aureus; 1% amino acid (unless specifically noted); p≤0.001
Description: (§1) Two types of biofilm assays were performed: a sustained inhibition assay and a disruption assay. The sustained inhibition assay assesses the compound's ability to prevent biofilm development throughout all stages of biofilm formation, while the disruption assay assesses the compound's ability to break up an existing mature biofilm. These assays are described in detail in the following article: Lohse, M. B., Gulati, M., Valle Arevalo, A., Fishburn, A., Johnson, A. D., and Nobile, C. […] Antimicrobial Agents and Chemotherapy 61: e02749-16.
(§2) All bacterial biofilm solutions were prepared in Trypic Soy Broth (TSB), supplemented with 1% glucose (henceforth referred to as TSB-G). All subsequent procedures were performed in a manner that maintained sterility. A solution of each amino acid to be tested was prepared in weight to volume concentrations ranging from 0.1-5.0%. Amino acids were also tested in combinations. Compound solutions were homogenized with gentle agitation in the dark (4° C., 24 hours) before use.
(§3) Bacterial strains were streaked on Blood Agar plates (5% sheep blood in Tryptic Soy Agar) and incubated at 37° C. for 24 hours. A single colony from each strain to be tested was inoculated in a TSB broth and grown for 12 hours, at 37° C. with shaking (225 rpm). For the bacterial biofilm inhibition assays, 1 μL of saturated overnight cell culture was added to either 80 μL of TSB-G, or TSB-G supplemented with the amino acid compound solution to be tested, in a 384-well plate. The cells were allowed to adhere to the plate for 60 minutes at 37° C. without shaking. The media was carefully aspirated and 80 μL of TSB-G, or TSB-G supplemented with the amino acid compound solution was added to the plate. The plate was further incubated for 24 hours at 37° C. without shaking. Media was carefully aspirated and the biofilm was measured by optical density at 600 nm. Eight or twelve replicates were performed for each tested condition and the reported values are normalized to the control (TSB-G media only). For the bacterial biofilm disruption assays, 80 μL of TSB-G was added to the plate, along with 1 μL of overnight cell culture. The cells were allowed to adhere to the plate for 60 minutes at 37° C. with no shaking. The media was carefully aspirated and 80 μL of TSB-G was added to the plate. The plate was further incubated for 24 hours at 37° C. with no shaking. Media was carefully aspirated from the mature biofilm and 80 μL of TSB-G, or TSB-G supplemented with the amino acid to be tested, was gently added to the plate. The plate was further incubated for 24 hours at 37° C. without shaking. Media was aspirated and the biofilm was measured by optical density at 600 nm. Twelve replicates were performed for each tested condition and the reported values are normalized to the control (TSB-G media only).

S. aureus [2] = test: Disruption biofilm assay, bacterial; assay type: cell-based, Staphylococcus aureus; conditions: Staphylococcus aureus, 24 h; disruption assay; S. aureus; 1% amino acid (unless specifically noted); p≤0.001; read-out: Reduce B Biofilm
Description: as §1, §2, §3

C. albicans = test: Disruption biofilm assay, fungal; assay type: cell-based, Candida albicans; conditions: disruption assay; C. albicans; 1% amino acid (unless specifically noted); p≤0.001
Description: as §1, §2
Fungal strains were streaked on Yeast Peptone Dextrose (YPD) agar plates and incubated at 30° C. for 48 hours. A single colony from each strain to be tested was inoculated into YPD broth and grown for 12 hours, at 30° C., shaking at 225 rpm. […] The cells were allowed to adhere to the plate for 90 minutes at 37° C. with shaking (350 rpm). […] The plate was further incubated for 24 hours at 37° C. with shaking (350 rpm). Media was carefully aspirated and the biofilm was measured by optical density at 600 nm. […] The cells were allowed to adhere to the plate for 90 minutes at 37° C. with shaking (350 rpm). […] The plate was further incubated for 24 hours at 37° C. with shaking (350 rpm). […] The plate was further incubated for 24 hours at 37° C. with shaking (350 rpm). Media was carefully aspirated and the biofilm was measured by optical density at 600 nm.

With `N[C@@H](CC(=O)O)C(=O)O` [Aspartic Acid, L-aspartic acid] the “Reduce B Biofilm” value (S. aureus [1]) was “●● (two dots [ie. ••] signifies major effect (greater than about 30% change))”, the inhibition at 1 % (S. aureus [2]) was greater than 30% and the “Reduce F Biofilm” value (C. albicans) was “●● (two dots [ie. ••] signifies major effect (greater than about 30% change))”.
